Experiments:
[1] = molecular target: T1, PI3 Kbeta (PI3 Kb) (Homo sapiens, UniProt P42338); test: kinobeads assay, PI3Kbeta; assay type: binding; conditions: kinobeads assay, Table 6; read-out: Inhibition values (IC50) PI3Kb
T1 construct: endogenous in cells; host or cells: cell lysate
How it was run: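 Test compounds at various concentrations were added to cell lysate together with beads carrying an immobilized phenylmorpholin-chromen ligand, competing for kinase binding. Captured proteins were separated, eluted and quantified by multiplexed immunodetection; IC50 values came from dose-response curves for each kinase.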

[2] = system: S6RP serine-240/244 phosphorylation; test: In vitro Phospho-S6 cellular assay (pS6RP S240/244) in HEK293T/17 cells; assay type: cell-based; conditions: Homo sapiens, 2 hours, read-out: pS6 IC50
How it was run: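 HEK293T/17 cells were seeded at 40,000 (pS6RP) or 80,000 (pAkt) cells/well in DMEM with 2% FCS. They were exposed to 8 compound concentrations (0.1% DMSO) for 2 h at 37 °C and then lysed. Phosphoprotein was quantified by MesoScale electrochemiluminescence sandwich immunoassay, and the sigmoidal variable-slope dose-response was fitted.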

T1 sequence (P42338 whole entry): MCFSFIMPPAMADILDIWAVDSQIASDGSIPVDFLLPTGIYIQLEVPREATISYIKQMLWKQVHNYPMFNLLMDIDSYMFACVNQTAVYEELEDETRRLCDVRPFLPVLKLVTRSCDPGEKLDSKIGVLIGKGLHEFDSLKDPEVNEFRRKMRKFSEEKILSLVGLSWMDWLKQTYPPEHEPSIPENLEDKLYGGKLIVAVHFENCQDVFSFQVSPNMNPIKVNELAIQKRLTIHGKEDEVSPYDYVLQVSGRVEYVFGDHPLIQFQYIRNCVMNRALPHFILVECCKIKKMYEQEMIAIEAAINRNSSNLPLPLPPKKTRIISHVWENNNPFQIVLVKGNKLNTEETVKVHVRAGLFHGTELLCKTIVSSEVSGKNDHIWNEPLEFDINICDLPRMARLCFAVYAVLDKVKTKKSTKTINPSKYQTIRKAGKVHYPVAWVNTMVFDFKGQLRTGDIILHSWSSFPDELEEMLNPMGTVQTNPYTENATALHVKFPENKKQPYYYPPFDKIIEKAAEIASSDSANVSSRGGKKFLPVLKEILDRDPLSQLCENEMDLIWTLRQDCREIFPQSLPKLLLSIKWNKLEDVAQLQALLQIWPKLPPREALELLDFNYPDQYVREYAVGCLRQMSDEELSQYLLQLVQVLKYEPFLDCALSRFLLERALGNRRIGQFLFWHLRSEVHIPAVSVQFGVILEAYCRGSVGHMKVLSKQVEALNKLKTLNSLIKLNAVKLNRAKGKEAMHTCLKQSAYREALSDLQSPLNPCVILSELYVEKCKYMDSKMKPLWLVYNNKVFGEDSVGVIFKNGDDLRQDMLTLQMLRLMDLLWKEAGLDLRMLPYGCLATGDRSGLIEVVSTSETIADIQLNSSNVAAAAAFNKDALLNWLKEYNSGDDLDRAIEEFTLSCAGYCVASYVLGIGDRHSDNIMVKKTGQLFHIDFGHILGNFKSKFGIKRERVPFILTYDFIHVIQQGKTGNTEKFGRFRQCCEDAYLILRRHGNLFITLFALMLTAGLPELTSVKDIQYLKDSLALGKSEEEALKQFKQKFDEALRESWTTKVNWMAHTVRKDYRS
T1 sequence (P27986 whole entry partner): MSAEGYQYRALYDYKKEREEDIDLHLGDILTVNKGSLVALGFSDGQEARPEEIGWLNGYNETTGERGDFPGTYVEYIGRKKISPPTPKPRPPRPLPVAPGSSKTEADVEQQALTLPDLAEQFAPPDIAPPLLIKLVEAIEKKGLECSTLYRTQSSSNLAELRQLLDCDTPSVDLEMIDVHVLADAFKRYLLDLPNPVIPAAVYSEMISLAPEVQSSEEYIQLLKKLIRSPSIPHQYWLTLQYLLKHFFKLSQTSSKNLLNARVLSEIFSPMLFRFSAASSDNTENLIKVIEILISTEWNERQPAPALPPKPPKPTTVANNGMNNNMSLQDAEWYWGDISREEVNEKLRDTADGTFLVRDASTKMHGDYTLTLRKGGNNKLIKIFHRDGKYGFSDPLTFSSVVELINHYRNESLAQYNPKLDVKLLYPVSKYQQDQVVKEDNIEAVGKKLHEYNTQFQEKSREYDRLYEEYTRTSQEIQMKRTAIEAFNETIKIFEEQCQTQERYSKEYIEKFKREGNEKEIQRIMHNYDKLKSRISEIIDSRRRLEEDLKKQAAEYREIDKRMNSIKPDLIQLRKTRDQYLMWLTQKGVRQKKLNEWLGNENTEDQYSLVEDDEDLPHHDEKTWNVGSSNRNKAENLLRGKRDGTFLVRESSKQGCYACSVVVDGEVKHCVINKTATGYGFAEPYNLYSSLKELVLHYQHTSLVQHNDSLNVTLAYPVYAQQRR

| Structure (SMILES) | IC50 [1] | IC50 [2] |
| --- | --- | --- |
| CCNC(=O)Nc1ccc(-c2nc3c(c(N4CCOCC4)n2)CN(C(=O)C(C)(C)C)C3)cc1 [Example 100, 1-ethyl-3-(4-(4-morpholino-6-pivaloyl-6,7-dihydro-5H-pyrrolo[3,4-d]pyrimidin-2-yl)phenyl)urea] | > 10000 nM | 202 nM |
| CCNC(=O)Nc1ccc(-c2nc3c(c(N4CCOC[C@@H]4C)n2)CCN(C(=O)CO)C3)cc1 [Example 102, (S)-1-ethyl-3-(4-(7-(2-hydroxyacetyl)-4-(3-methylmorpholino)-5,6,7,8-tetrahydropyrido[3,4-d]pyrimidin-2-yl)phenyl)urea] | > 10000 nM | 258 nM |
| CCNC(=O)Nc1ccc(-c2nc3c(c(N4CCOC[C@@H]4C)n2)CN(C(=O)OCC)C3)cc1F [Example 103, (S)-ethyl-2-(4-(3-ethylureido)-3-fluorophenyl)-4-(3-methylmorpholino)-5H-pyrrolo[3,4-d]pyrimidine-6(7H)-carboxylate] | > 10000 nM | 207 nM |
| CCOC(=O)N1Cc2nc(-c3ccc(NC(=O)NCCO)c(F)c3)nc(N3CCOC[C@@H]3C)c2C1 [Example 104, (S)-ethyl-2-(3-fluoro-4-(3-(2-hydroxyethyl)ureido)phenyl)-4-(3-methylmorpholino)-5H-pyrrolo[3,4-d]pyrimidine-6(7H)-carboxylate] | > 10000 nM | 390 nM |
| CCOC(=O)N1Cc2nc(-c3ccc(NC(=O)NC4CC4)c(F)c3)nc(N3CCOC[C@@H]3C)c2C1 [Example 105, (S)-ethyl 2-(4-(3-cyclopropylureido)-3-fluorophenyl)-4-(3-methylmorpholino)-5H-pyrrolo[3,4-d]pyrimidine-6(7H)-carboxylate] | > 10000 nM | 414 nM |
| CCNC(=O)Nc1ncc(-c2nc3c(c(N4CCOC[C@@H]4C)n2)CCN(C)C3)s1 [Example 106, (S)-1-ethyl-3-(5-(7-methyl-4-(3-methylmorpholino)-5,6,7,8-tetrahydropyrido[3,4-d]pyrimidin-2-yl)thiazol-2-yl)urea] | > 10000 nM | 294 nM |
| CCNC(=O)Nc1ccc(-c2nc3c(c(N4CCOC[C@@H]4C)n2)CN(C(=O)OCC)CC3)cc1 [Example 107, (S)-ethyl 2-(4-(3-ethylureido)phenyl)-4-(3-methylmorpholino)-7,8-dihydropyrido[4,3-d]pyrimidine-6(5H)-carboxylate] | > 10000 nM | 159 nM |
| CCNC(=O)Nc1cc(F)c(-c2nc3c(c(N4CCOC[C@@H]4C)n2)CCN(C)C3)cc1F [Example 108, (S)-1-(2,5-difluoro-4-(7-methyl-4-(3-methylmorpholino)-5,6,7,8-tetrahydropyrido[3,4-d]pyrimidin-2-yl)phenyl)-3-ethylurea] | > 10000 nM | 935 nM |
| CCNC(=O)Nc1ccc(-c2nc3c(c(N4CCOC[C@@H]4C)n2)CCN(C)C3)c(F)c1 [Example 110, (S)-1-ethyl-3-(3-fluoro-4-(7-methyl-4-(3-methylmorpholino)-5,6,7,8-tetrahydropyrido[3,4-d]pyrimidin-2-yl)phenyl)urea] | > 10000 nM | 192 nM |
| CCNC(=O)Nc1ccc(-c2nc3c(c(N4CCOC[C@@H]4C)n2)CN(C(=O)OCC)C3)c(F)c1 [Example 113, (S)-ethyl-2-(4-(3-ethylureido)-2-fluorophenyl)-4-(3-methylmorpholino)-5H-pyrrolo[3,4-d]pyrimidine-6(7H)-carboxylate] | > 10000 nM | 77 nM |
| CCOC(=O)N1Cc2nc(-c3ccc(NC(=O)NCCF)cc3)nc(N3CCOC[C@@H]3C)c2C1 [Example 120, (S)-ethyl 2-(4-(3-(2-fluoroethyl)ureido)phenyl)-4-(3-methylmorpholino)-5H-pyrrolo[3,4-d]pyrimidine-6(7H)-carboxylate] | > 10000 nM | 25 nM |
| CCOC(=O)N1Cc2nc(-c3ccc(NC(=O)Nc4ccncc4)cc3)nc(N3CCOC[C@@H]3C)c2C1 [Example 121, (S)-ethyl 4-(3-methylmorpholino)-2-(4-(3-(pyridin-4-yl)ureido)phenyl)-5H-pyrrolo[3,4-d]pyrimidine-6(7H)-carboxylate] | > 10000 nM | 33 nM |
| CCNC(=O)Nc1ccc(-c2nc3c(c(N4CCOC[C@@H]4C)n2)CN(C2CCN(C(=O)OC)CC2)C3)cc1F [Example 122, (S)-methyl 4-(2-(4-(3-ethylureido)-3-fluorophenyl)-4-(3-methylmorpholino)-5H-pyrrolo[3,4-d]pyrimidin-6(7H)-yl)piperidine-1-carboxylate] | > 10000 nM | 175 nM |
| CCOC(=O)N1Cc2nc(-c3ccc(NC(=O)NC4CC4)cc3F)nc(N3CCOC[C@@H]3C)c2C1 [Example 131, (S)-ethyl 2-(4-(3-cyclopropylureido)-2-fluorophenyl)-4-(3-methylmorpholino)-5H-pyrrolo[3,4-d]pyrimidine-6(7H)-carboxylate] | > 10000 nM | 99 nM |

The remaining lines, values ahead:

| IC50 [1] | IC50 [2] | Structure (SMILES) |
| --- | --- | --- |
| > 10000 nM | 83 nM | CCNC(=O)N1CCc2c(nc(-c3ccc(NC(=O)NC4CC4)cc3)nc2N2CCOC[C@@H]2C)C1 [Example 88, (S)-2-(4-(3-cyclopropylureido)phenyl)-N-ethyl-4-(3-methylmorpholino)-5,6-dihydropyrido[3,4-d]pyrimidine-7(8H)-carboxamide] |
| > 10000 nM | 82 nM | CCNC(=O)Nc1ccc(-c2nc3c(c(N4CCOC[C@@H]4C)n2)CN(C(=O)OC)C3)cc1 [Example 89, (S)-methyl 2-(4-(3-ethylureido)phenyl)-4-(3-methylmorpholino)-5H-pyrrolo[3,4-d]pyrimidine-6(7H)-carboxylate] |
| > 10000 nM | 83 nM | CCNC(=O)Nc1ccc(-c2nc3c(c(N4CCOC[C@@H]4C)n2)CN(C(=O)OCC)C3)cc1 [Example 90, (S)-ethyl 2-(4-(3-ethylureido)phenyl)-4-(3-methylmorpholino)-5H-pyrrolo[3,4-d]pyrimidine-6(7H)-carboxylate] |
| > 10000 nM | 105 nM | CCNC(=O)Nc1ccc(-c2nc3c(c(N4CCOC[C@@H]4C)n2)CCN(C(=O)Cc2cccnc2)C3)cc1 [Example 91, (S)-1-ethyl-3-(4-(4-(3-methylmorpholino)-7-(2-(pyridin-3-yl)acetyl)-5,6,7,8-tetrahydropyrido[3,4-d]pyrimidin-2-yl)phenyl)urea] |
| > 10000 nM | 196 nM | CCNC(=O)Nc1ccc(-c2nc3c(c(N4CCOCC4)n2)CCN(C)C3)cc1 [Example 93, 1-ethyl-3-(4-(7-methyl-4-morpholino-5,6,7,8-tetrahydropyrido[3,4-d]pyrimidin-2-yl)phenyl)urea] |
| > 10000 nM | 565 nM | CCNC(=O)Nc1ccc(-c2nc3c(c(N4CCOCC4)n2)CCN(C(=O)NCC)C3)cc1 [Example 94, N-ethyl-2-(4-(3-ethylureido)phenyl)-4-morpholino-5,6-dihydropyrido[3,4-d]pyrimidine-7(8H)-carboxamide] |
| > 10000 nM | 50 nM | CCNC(=O)Nc1ccc(-c2nc3c(c(N4CCOCC4)n2)CCN(C(=O)OCC)C3)cc1 [Example 96, ethyl 2-(4-(3-ethylureido)phenyl)-4-morpholino-5,6-dihydropyrido[3,4-d]pyrimidine-7(8H)-carboxylate] |
| 1000 to 10000 nM | 338 nM | CCNC(=O)Nc1ccc(-c2nc3c(c(N4CCOCC4)n2)CCN(C(C)=O)C3)cc1 [Example 97, 1-(4-(7-acetyl-4-morpholino-5,6,7,8-tetrahydropyrido[3,4-d]pyrimidin-2-yl)phenyl)-3-ethylurea] |
| > 10000 nM | 45 nM | CCNC(=O)Nc1ccc(-c2nc3c(c(N4CCOCC4)n2)CCN(C(=O)C(C)(C)C)C3)cc1 [Example 98, 1-ethyl-3-(4-(4-morpholino-7-pivaloyl-5,6,7,8-tetrahydropyrido[3,4-d]pyrimidin-2-yl)phenyl)urea] |

From US8785457B2 (Cellzome Limited, priority 2009, dated 2014)
